Results reported in patent US9096615B2, “Bridged bicyclic amino thiazine dioxide compounds as inhibitors of beta-secretase and methods of use thereof” (AMGEN INC., priority 2013, dated 2015).
Like-named read-outs stand apart in the source and are kept apart here.

Assays:
BACE1 = BACE1 (Homo sapiens, UniProt P56817); assay: In vitro enzymatic BACE FRET assay; format: biochemical; settings: read-out: BACE1 FRET assay IC50
Procedure: In Vitro Enzymatic BACE FRET (Fluorescence Resonance Energy Transfer) Assay
Enzyme Assay Data in the Example Table I
The assay buffer used in this screen is 0.05 M acetate, pH 4.2, 10% DMSO final, 100 uM genapol (which is a nonionic detergent, below its Critical Micelle Concentration). The Beta Secretase enzyme (0.2 nM) is pre-incubated for one hour with inhibitors, typically in about 1 uL of DMSO according to a serial dilution, are added thereto. This assay is effectively started by the addition of FRET substrate (50 nM) and the combination is incubated for one hour. The FRET assay is terminated with by addition of Tris buffer, which raises the pH to neutrality, and the fluorescence is determined. The FRET substrate is a peptide with commercially available fluorophore and quencher, on opposite sides of the BACE cleavage site. Proteolytic cleavage of the FRET substrate releases quenching of fluorescence (excitation 488 nm and […]).

[1] = test system: Aβ40 in conditioned medium of cells stably expressing Amyloid Precursor Protein (APP); assay: In vitro BACE cell-based assay (HEK cell assay, Aβ40 sandwich ELISA); settings: Homo sapiens, HEK293; Aβ40, 24 h incubation; read-out: HEK cell assay IC50
Procedure: In Vitro BACE Cell-Based Assay
The cell-based assay measures inhibition or reduction of Aβ40 in conditioned medium of test compound treated cells expressing amyloid precursor protein.
Cells stably expressing Amyloid Precursor Protein (APP) were plated at a density of 40K cells/well in 96 well plates (Costar). The cells were cultivated for 24 hours at 37° C. and 5% CO2 in DMEM supplemented with 10% FBS. The test compounds were then added to cells in 10-point dose response concentrations with the starting concentration being either 100 μM or 10 μM. The compounds were diluted from stock solutions in DMSO and the final DMSO concentration of the test compounds on cells was 0.1%. After 24 h of incubation with the test compounds the supernatant conditioned media was collected and the Aβ 40 levels were determined using a sandwich ELISA. The IC50 of the compound was calculated from the percent of control or percent inhibition of Aβ 40 as a function of the concentration of the test compound.
The sandwich ELISA to detect Aβ 40 was performed in 96 well microtiter plates, which were pre-treated with goat anti-rabbit IgG (Pierce). The capture and detecting antibody pair that were used to detect Aβ 40 from cell supernatants were affinity purified pAb40 (Biosource) and biotinylated 6E10 (Signet Labs Inc.), respectively. The optimal concentration for the pAb40 antibody was 3 μg/ml in Superblock/TBS (Pierce) that was supplemented with 0.05% Tween 20 (Sigma). Optimal concentration for the detection antibody 6E10-biotinylated was 0.5 μg/ml in Superblock/TBS (Pierce) that had been supplemented with 2% normal goat serum and 2% normal mouse serum.
Cellular supernatants were incubated with the capture antibody for 3 h at 4° C., followed by 3 wash steps in TBS-tween (0.05%). The detecting antibody incubation was for 2 h at 4° C., again followed by the wash steps as described previously. The final readout of the ELISA is Time-Resolved Fluorescence (counts per minute) using Delfia reagents Streptavidin-Europium and Enhancement solutions (Perkin Elmer) and the Victor 2 multilabel counter (Perkin Elmer).

Cathepsin D (Cat D) = target: T1, Cathepsin D (Cat D) (Homo sapiens, UniProt P07339); assay: In vitro enzymatic Cathepsin D (Cat D) FRET assay; format: biochemical
T1 construct: made in house; host or cells: CHO cells
T1 sequence (P07339 65-412, species assumed): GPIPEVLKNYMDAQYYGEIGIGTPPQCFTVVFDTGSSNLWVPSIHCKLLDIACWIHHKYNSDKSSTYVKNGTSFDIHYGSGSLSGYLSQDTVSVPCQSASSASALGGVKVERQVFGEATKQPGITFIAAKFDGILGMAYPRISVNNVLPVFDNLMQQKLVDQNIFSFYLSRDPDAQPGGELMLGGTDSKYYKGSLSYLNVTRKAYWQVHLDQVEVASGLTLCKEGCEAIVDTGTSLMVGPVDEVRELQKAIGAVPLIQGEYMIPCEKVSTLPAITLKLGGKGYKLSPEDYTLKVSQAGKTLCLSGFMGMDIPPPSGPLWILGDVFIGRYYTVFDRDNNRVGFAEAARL
Procedure: In Vitro Enzymatic Cathepsin D (Cat D) FRET (Fluorescence Resonance Energy Transfer) Assay
Recombinant Cat D was expressed in CHO cells. The assay buffer for CathepsinD is 0.05 M citrate pH 3.5, 10% DMSO final, 5 mM CHAPS. The Cat D enzyme (9 nM) is pre-incubated for one hour with inhibitors, typically in about 1 uL of DMSO according to a serial dilution, is added thereto. The assays are effectively started by the addition of different FRET substrates (20 nM for Cat D) and the combination is incubated for one hour. The FRET assay is terminated with by addition of Tris buffer, which raises the pH to neutrality, and the fluorescence is determined. The FRET substrate is a peptide with commercially available fluorophore and quencher, on opposite sides of the BACE cleavage site. The Cat D substrate peptide sequence is based on sequence #1 of Table 1 from Gulnik et al. FEBS Letters v413 p 379-384 1997. Proteolytic cleavage of the FRET substrate releases quenching of fluorescence (Cat D excitation 500 nm and emission 580 nm). […]
Where available, the in-vitro Cat D FRET assay data for each of the Examples, conducted by the first procedure, is provided in Tables 1 and 3. For example, the compound of example 28 has a Cat D IC50 value of >400 uM.

BACE1, sequence (P56817 46-501, species assumed): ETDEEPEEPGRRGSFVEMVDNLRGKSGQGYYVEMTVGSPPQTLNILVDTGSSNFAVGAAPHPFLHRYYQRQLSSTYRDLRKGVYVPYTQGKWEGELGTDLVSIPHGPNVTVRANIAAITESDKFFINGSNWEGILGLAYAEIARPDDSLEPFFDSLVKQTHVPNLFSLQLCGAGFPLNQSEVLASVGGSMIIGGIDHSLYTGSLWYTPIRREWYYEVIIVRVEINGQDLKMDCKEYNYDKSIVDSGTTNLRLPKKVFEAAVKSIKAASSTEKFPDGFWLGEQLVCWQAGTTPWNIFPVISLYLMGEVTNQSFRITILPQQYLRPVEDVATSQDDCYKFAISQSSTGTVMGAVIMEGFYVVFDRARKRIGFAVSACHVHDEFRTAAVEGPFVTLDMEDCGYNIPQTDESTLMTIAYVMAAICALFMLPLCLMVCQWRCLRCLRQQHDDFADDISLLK

IC50 (BACE1) [nM]	IC50 [1] [nM]	IC50 (Cathepsin D (Cat D); read-out: CatD IC50) [µM]	IC50 (Cathepsin D (Cat D); read-out: Cat D IC50 value) [µM]	SMILES
9	2	17.7	–	Cc1cc(OC(F)F)cnc1C(=O)Nc1ccc(F)c([C@@]2(C)N=C(N)[C@]3(C)CCC[C@@]2(C)S3(=O)=O)c1 [Example 14, N-(3-((1R,2R,5S)-4-Amino-1,2,5-trimethyl-9,9-dioxido-9-thia-3-azabicyclo[3.3.1]non-3-en-2-yl)-4-fluorophenyl)-5-(difluoromethoxy)-3-methylpicolinamide]
49	27	138	–	COc1cnc(C(=O)Nc2ccc(F)c([C@@]3(C)N=C(N)[C@@]4(C)CCC[C@]3(C)S4(=O)=O)c2)cn1 [Example 15, N-(3-((1S,2R,5R)-4-Amino-1,2,5-trimethyl-9,9-dioxido-9-thia-3-azabicyclo[3.3.1]non-3-en-2-yl)-4-fluorophenyl)-5-methoxypyrazine-2-carboxamide]
20	16	85.2	–	COc1cnc(C(=O)Nc2ccc(F)c([C@@]3(C)N=C(N)[C@]4(C)CCC[C@@]3(C)S4(=O)=O)c2)cn1 [Example 16, N-(3-((1R,2R,5S)-4-Amino-1,2,5-trimethyl-9,9-dioxido-9-thia-3-azabicyclo[3.3.1]non-3-en-2-yl)-4-fluorophenyl)-5-methoxypyrazine-2-carboxamide]
15	64	2780	–	Cc1cc(Cl)cnc1C(=O)Nc1ccc(F)c([C@@]2(C)N=C(N)[C@@H]3CCC[C@H]2S3(=O)=O)c1 [Example 17, N-(3-((1R,2R,5S)-4-Amino-2-methyl-9,9-dioxido-9-thia-3-azabicyclo[3.3.1]non-3-en-2-yl)-4-fluorophenyl)-5-chloro-3-methylpicolinamide]
43	18	690	–	Cc1cc(OC(F)F)cnc1C(=O)Nc1ccc(F)c([C@@]2(C)N=C(N)[C@@H]3CCC[C@H]2S3(=O)=O)c1 [Example 18, N-(3-((1R,2R,5S)-4-Amino-2-methyl-9,9-dioxido-9-thia-3-azabicyclo[3.3.1]non-3-en-2-yl)-4-fluorophenyl)-5-(difluoromethoxy)-3-methylpicolinamide]
3	6	717	–	Cc1cc(Cl)cnc1C(=O)Nc1ccc(F)c([C@@]2(C)N=C(N)[C@H]3CCC[C@@H]2S3(=O)=O)c1 [Example 20, N-(3-((1S,2R,5R)-4-Amino-2-methyl-9,9-dioxido-9-thia-3-azabicyclo[3.3.1]non-3-en-2-yl)-4-fluorophenyl)-5-chloro-3-methylpicolinamide]
16	81	1640	–	Cc1cc(Cl)cnc1C(=O)Nc1ccc(F)c([C@@]2(C)N=C(N)[C@@H]3CC[C@H]2S3(=O)=O)c1 [Example 21, N-(3-((1R,2R,5S)-4-Amino-2-methyl-8,8-dioxido-8-thia-3-azabicyclo[3.2.1]oct-3-en-2-yl)-4-fluorophenyl)-5-chloro-3-methylpicolinamide]
2	1	117	–	Cc1cc(OC(F)F)cnc1C(=O)Nc1ccc(F)c([C@@]2(C)N=C(N)[C@@]3(C)CC[C@@H]2S3(=O)=O)c1 [Example 23, N-(3-((1S,2R,5R)-4-Amino-2,5-dimethyl-8,8-dioxido-8-thia-3-azabicyclo[3.2.1]oct-3-en-2-yl)-4-fluorophenyl)-5-(difluoromethoxy)-3-methylpicolinamide]
21	4	318	–	Cc1c(C(=O)Nc2ccc(F)c([C@@]3(C)N=C(N)[C@@]4(C)CC[C@@H]3S4(=O)=O)c2)nc2ccc(Cl)cn12 [Example 25, N-(3-((1S,2R,5R)-4-Amino-2,5-dimethyl-8,8-dioxido-8-thia-3-azabicyclo[3.2.1]oct-3-en-2-yl)-4-fluorophenyl)-6-chloro-3-methylimidazo[1,2-a]pyridine-2-carboxamide]
8	17	577	–	Cc1cc(Cl)cnc1C(=O)Nc1ccc(F)c([C@@]2(C)N=C(N)[C@]3(C)CC[C@H]2S3(=O)=O)c1 [Example 26, N-(3-((1R,2R,5S)-4-Amino-2,5-dimethyl-8,8-dioxido-8-thia-3-azabicyclo[3.2.1]oct-3-en-2-yl)-4-fluorophenyl)-5-chloro-3-methylpicolinamide]
14	2	2040	–	Cc1cc(C(F)(F)F)cnc1C(=O)Nc1ccc(F)c([C@@]2(C)N=C(N)[C@]3(C)CC[C@H]2S3(=O)=O)c1 [Example 27, N-(3-((1R,2R,5S)-4-Amino-2,5-dimethyl-8,8-dioxido-8-thia-3-azabicyclo[3.2.1]oct-3-en-2-yl)-4-fluorophenyl)-3-methyl-5-(trifluoromethyl)picolinamide]
70	10	> 400	> 400	Cc1c(C(=O)Nc2ccc(F)c([C@@]3(C)N=C(N)[C@]4(C)CC[C@H]3S4(=O)=O)c2)nc2ccc(Cl)cn12 [Example 28, N-(3-((1R,2R,5S)-4-Amino-2,5-dimethyl-8,8-dioxido-8-thia-3-azabicyclo[3.2.1]oct-3-en-2-yl)-4-fluorophenyl)-6-chloro-3-methylimidazo[1,2-a]pyridine-2-carboxamide]
1	52	733	–	C[C@]1(c2cc(Nc3ncc(F)c4cc(Cl)cnc34)ccc2F)N=C(N)[C@@]2(C)CC[C@@H]1S2(=O)=O [Example 29, (1R,4R,5S)-2-Amino-4-(5-((3-chloro-5-fluoro-1,7-naphthyridin-8-yl)amino)-2-fluorophenyl)-1,4-dimethyl-8-thia-3-azabicyclo[3.2.1]oct-2-ene 8,8-dioxide]
33	163	4500	–	C[C@]12CC[C@H]([C@@](C)(c3cc(Nc4ncc(F)c5cc(Cl)cnc45)ccc3F)N=C1N)S2(=O)=O [Example 30, N-(3-((1R,2R,5S)-4-amino-2,5-dimethyl-8,8-dioxido-8-thia-3-azabicyclo[3.2.1]oct-3-en-2-yl)-4-fluorophenyl)-3-chloro-5-fluoro-1,7-naphthyridin-8-amine]
4	12	56.9	–	Cc1cc(Cl)cnc1C(=O)Nc1ccc(F)c([C@@]2(C)N=C(N)[C@@]3(C)CC[C@]2(C)S3(=O)=O)c1 [Example 31, N-(3-((1S,2R,5R)-4-amino-1,2,5-trimethyl-8,8-dioxido-8-thia-3-azabicyclo[3.2.1]oct-3-en-2-yl)-4-fluorophenyl)-5-chloro-3-methylpicolinamide]
7	17	131	–	Cc1cc(Cl)cnc1C(=O)Nc1ccc(F)c([C@@]2(C)N=C(N)[C@]3(C)CC[C@@]2(C)S3(=O)=O)c1 [Example 32, N-(3-((1R,2R,5S)-4-amino-1,2,5-trimethyl-8,8-dioxido-8-thia-3-azabicyclo[3.2.1]oct-3-en-2-yl)-4-fluorophenyl)-5-chloro-3-methylpicolinamide]
